Patent US20050227994A1, “Decomposition inhibitor for extracellular matrix of cartilage” (Shionogi & Co., Ltd., priority 2002, published 2005)

Each compound was assayed against T1, MMP-13 (Homo sapiens, UniProt P45452) (assay: Assay for inhibitory activities on MMP-13). Details: catalytic domain, substrate MOCAc-Pro-Leu-Gly-Leu-A2Pr(DNP)-Ala-Arg-NH2; read-out: MMP-13 (IC50μM).
T1 construct: catalytic domain (^104Tyr˜^267Gly) was amplified with RT-PCR; His-tag; enterokinase digestion-site; made in house
Format: biochemical
Procedure: In regard to MMP-13, mRNA was prepared from carcinoma cell SW1353 derived from human cartilage stimulate by IL-1, TNF and catalytic domain (^[…]) was amplified with RT-PCR. This was cloned in Escherichia. coli expression vector […] inserted with His-tag sequence and enterokinase digestion-site, induced and expressed by IPTG (Isopropyl-β-D-thiogalactopyranoside) and expressed in a insoluble fraction. Isolation of MMP-13 from an insoluble fraction was carried out by dissolving in modifier (6M urea) by a usual method and purification with metal chelate chromatography (Ni […] Sepharose). […] The enzymatic activity on MMP was analyzed by the method described in “C. Graham Knight, Frances Willenbrock and Gillian Murphy: A novel coumarin-labelled peptide for sensitive continuous assays of the matrix metalloproteinases: […] The substrate: MOCAc-[…] was purchased from Peptide Institute, Inc., Osaka, Japan.

Row | IC50 | Compound
1 | 0.012 µM | CCC(C)[C@H](NS(=O)(=O)c1ccc(-c2ncc(-c3ccccc3)s2)cc1)C(=O)O (stereo partly drawn) [Compound A-1]
2 | 0.0013 µM | CCC(C)[C@H](NS(=O)(=O)c1ccc(-c2ncc(-c3ccc(OC)cc3)s2)cc1)C(=O)O (stereo partly drawn) [Compound A-2]
3 | 0.0023 µM | COc1ccc(-c2cnc(-c3ccc(S(=O)(=O)N[C@H](CCSC)C(=O)O)cc3)s2)cc1 [Compound A-3]
4 | 0.0024 µM | COc1ccc(-c2cnc(-c3ccc(S(=O)(=O)N[C@H](CCC(=O)O)C(=O)O)cc3)s2)cc1 [Compound A-4]
5 | 0.002 µM | CC(C)[C@H](NS(=O)(=O)c1ccc(-c2ncc(-c3ccc(Br)cc3)s2)cc1)C(=O)O [Compound A-5]
6 | 0.0029 µM | O=C(O)[C@@H](Cc1ccccc1)NS(=O)(=O)c1ccc(-c2ncc(-c3ccc(Br)cc3)s2)cc1 [Compound A-6]
7 | 0.0111 µM | O=C(O)[C@H](NS(=O)(=O)c1ccc(-c2ncc(-c3ccc(Br)cc3)s2)cc1)c1ccccc1 [Compound A-7]
8 | 0.0038 µM | CSCC[C@@H](NS(=O)(=O)c1ccc(-c2ncc(-c3ccc(Br)cc3)s2)cc1)C(=O)O [Compound A-8]
9 | 0.0065 µM | CC(C)C[C@H](NS(=O)(=O)c1ccc(-c2ncc(-c3ccc(Cl)cc3)s2)cc1)C(=O)O [Compound A-9]
10 | 0.0246 µM | O=C(O)[C@@H](NS(=O)(=O)c1ccc(-c2ncc(-c3ccc(Cl)cc3)s2)cc1)c1ccccc1 [Compound A-10]
11 | 0.0114 µM | CC(C)C[C@H](NS(=O)(=O)c1ccc(-c2ncc(-c3ccc(F)cc3)s2)cc1)C(=O)O [Compound A-11]
12 | 0.019 µM | C[C@H](NS(=O)(=O)c1ccc(-c2ncc(-c3ccc4ccccc4c3)s2)cc1)C(=O)O [Compound A-13]
13 | 0.0061 µM | O=C(O)[C@@H](Cc1c[nH]c2ccccc12)NS(=O)(=O)c1ccc(-c2ncc(-c3ccc(F)c(F)c3)s2)cc1 [Compound A-14]
14 | 0.0135 µM | CSCC[C@@H](NS(=O)(=O)c1ccc(-c2ncc(-c3ccc(Cl)c(Cl)c3)s2)cc1)C(=O)O [Compound A-15]
15 | 0.0154 µM | O=C(O)C[C@@H](NS(=O)(=O)c1ccc(-c2ncc(-c3ccc(Cl)c(Cl)c3)s2)cc1)C(=O)O [Compound A-16]
16 | 0.0065 µM | C[C@@H](NS(=O)(=O)c1ccc(-c2ncc(-c3ccc4c(c3)OCO4)s2)cc1)C(=O)O [Compound A-17]
17 | 0.0052 µM | CC(C)[C@@H](NS(=O)(=O)c1ccc(-c2ncc(-c3ccc4c(c3)OCO4)s2)cc1)C(=O)O [Compound A-18]
18 | 0.0092 µM | CSCC[C@@H](NS(=O)(=O)c1ccc(-c2ncc(-c3ccc4c(c3)OCO4)s2)cc1)C(=O)O [Compound A-19]
19 | 0.0183 µM | O=C(O)C[C@@H](NS(=O)(=O)c1ccc(-c2ncc(-c3ccc4c(c3)OCO4)s2)cc1)C(=O)O [Compound A-20]
20 | 0.0482 µM | CC(C)C[C@@H](NS(=O)(=O)c1ccc(-c2ncc(-c3ccc(Cl)c(Cl)c3)s2)cc1)C(=O)O [Compound A-24]
21 | 0.00033 µM | CSc1ccc(-c2cnc(-c3ccc(S(=O)(=O)N[C@@H](C(=O)O)C(C)C)cc3)s2)cc1 [Compound A-25]
22 | 0.00045 µM | CSc1ccc(-c2cnc(-c3ccc(S(=O)(=O)N[C@H](C(=O)O)C(C)C)cc3)s2)cc1 [Compound A-26]
23 | 0.001 µM | CSc1ccc(-c2cnc(-c3ccc(S(=O)(=O)N[C@@H](C)C(=O)O)cc3)s2)cc1 [Compound A-27]

Row | IC50 | Compound
24 | 0.0199 µM | COc1ccc(-c2cnc(-c3ccc(S(=O)(=O)N[C@H](CCC(=O)O)C(=O)O)cc3)o2)cc1 [Compound B-1]
25 | 0.763 µM | C[C@H](NS(=O)(=O)c1ccc(-c2ncc(-c3ccc4ccccc4c3)o2)cc1)C(=O)O [Compound B-2]
26 | 0.0443 µM | O=C(O)[C@@H](Cc1ccccc1)NS(=O)(=O)c1ccc(-c2ncc(-c3ccc(Cl)cc3)o2)cc1 [Compound B-3]
27 | 0.0169 µM | O=C(O)[C@@H](Cc1ccccc1)NS(=O)(=O)c1ccc(-c2ncc(-c3ccc(Cl)c(Cl)c3)o2)cc1 [Compound B-5]
28 | 0.01 µM | CCc1ccc(-c2nc(-c3ccc(S(=O)(=O)N[C@@H](C(=O)O)C(C)C)cc3)no2)cc1 [Compound C-1]
29 | 0.027 µM | CCc1ccc(-c2nc(-c3ccc(S(=O)(=O)N[C@H](Cc4ccccc4)C(=O)O)cc3)no2)cc1 [Compound C-2]
30 | 0.0113 µM | CC(C)c1ccc(-c2nc(-c3ccc(S(=O)(=O)N[C@H](C)C(=O)O)cc3)no2)cc1 [Compound C-3]
31 | 0.0057 µM | CC(C)c1ccc(-c2nc(-c3ccc(S(=O)(=O)N[C@@H](C(=O)O)C(C)C)cc3)no2)cc1 [Compound C-4]
32 | 0.018 µM | CSCC[C@@H](NS(=O)(=O)c1ccc(-c2noc(-c3ccc(C(C)C)cc3)n2)cc1)C(=O)O [Compound C-6]
33 | 0.0196 µM | CC(C)c1ccc(-c2nc(-c3ccc(S(=O)(=O)N[C@H](CC(=O)O)C(=O)O)cc3)no2)cc1 [Compound C-7]
34 | 0.049 µM | O=C(O)[C@H](Cc1ccccc1)NS(=O)(=O)c1ccc(-c2noc(-c3ccc4c(c3)OCO4)n2)cc1 [Compound C-8]
35 | > 10 µM | O=C(O)[C@H](Cc1ccccc1)NS(=O)(=O)c1ccc(-c2noc(-c3ccc4cc(Br)ccc4c3)n2)cc1 [Compound C-9]
36 | 0.0174 µM | CSc1ccc(-c2nc(-c3ccc(S(=O)(=O)N[C@H](Cc4ccccc4)C(=O)O)cc3)no2)cc1 [Compound C-10]
37 | 0.028 µM | CCCCc1ccc(-c2noc(-c3ccc(S(=O)(=O)N[C@@H](C(=O)O)C(C)C)cc3)n2)cc1 [Compound D-1]
38 | 0.141 µM | O=C(O)[C@@H](Cc1ccccc1)NS(=O)(=O)c1ccc(-c2nc(-c3ccc(Cl)cc3)no2)cc1 [Compound D-2]
39 | 0.1 µM | CCCCc1ccc(-c2noc(-c3ccc(S(=O)(=O)N[C@H](Cc4ccccc4)C(=O)O)cc3)n2)cc1 [Compound D-3]
40 | 0.167 µM | O=C(O)[C@@H](Cc1ccccc1)NS(=O)(=O)c1ccc(-c2nc(-c3ccc(C(F)(F)F)cc3)no2)cc1 [Compound D-4]
41 | 1.01 µM | O=C(O)[C@@H](Cc1ccccc1)NS(=O)(=O)c1ccc(-c2nc(-c3ccc4ccccc4c3)no2)cc1 [Compound D-5]
42 | 0.764 µM | O=C(O)[C@@H](Cc1ccccc1)NS(=O)(=O)c1ccc(-c2nc(-c3ccc(Cl)c(Cl)c3)no2)cc1 [Compound D-6]
43 | 0.4 µM | CC(C)C(NS(=O)(=O)c1ccc(-c2ccccc2)cc1)C(=O)O (stereo not drawn) [Compound E-1]
44 | 0.00877 µM | Cc1ccc(-c2ccc(S(=O)(=O)N[C@H](Cc3c[nH]c4ccccc34)C(=O)O)cc2)cc1 [Compound E-2]
45 | 0.083 µM | CC(C)C(NS(=O)(=O)c1ccc(-c2ccc(Cl)cc2)cc1)C(=O)O (stereo not drawn) [Compound E-3]
46 | 0.0209 µM | CSc1ccc(-c2ccc(S(=O)(=O)NC(C)C(=O)O)cc2)cc1 (stereo not drawn) [Compound E-4]

Row | IC50 | Compound
47 | 0.0022 µM | CCC(C)C(NS(=O)(=O)c1ccc(-c2ccc(SC)cc2)cc1)C(=O)O (stereo not drawn) [Compound E-5]
48 | 0.0026 µM | CSc1ccc(-c2ccc(S(=O)(=O)NC(Cc3ccccc3)C(=O)O)cc2)cc1 (stereo not drawn) [Compound E-6]
49 | 0.0197 µM | CSCC[C@@H](NS(=O)(=O)c1ccc(-c2ccc(SC)cc2)cc1)C(=O)O [Compound E-7]
50 | 0.0105 µM | CSCC[C@H](NS(=O)(=O)c1ccc(-c2ccc(SC)cc2)cc1)C(=O)O [Compound E-8]
51 | 0.0132 µM | CSc1ccc(-c2ccc(S(=O)(=O)N[C@H](CC(=O)O)C(=O)O)cc2)cc1 [Compound E-9]
52 | 0.0236 µM | CSc1ccc(-c2ccc(S(=O)(=O)N[C@H](CCC(=O)O)C(=O)O)cc2)cc1 [Compound E-10]
53 | 0.0091 µM | CSc1ccc(-c2ccc(S(=O)(=O)N[C@@H](CCC(=O)O)C(=O)O)cc2)cc1 [Compound E-11]
54 | 0.0165 µM | CSc1ccc(-c2ccc(S(=O)(=O)N[C@H](CO)C(=O)O)cc2)cc1 [Compound E-12]
55 | 0.0254 µM | CSc1ccc(-c2ccc(S(=O)(=O)NC(C(=O)O)c3cccs3)cc2)cc1 (stereo not drawn) [Compound E-13]
56 | 0.0135 µM | CCSc1ccc(-c2ccc(S(=O)(=O)NC(C)C(=O)O)cc2)cc1 (stereo not drawn) [Compound E-14]
57 | 0.0195 µM | CCSc1ccc(-c2ccc(S(=O)(=O)NC(C(=O)O)C(C)C)cc2)cc1 (stereo not drawn) [Compound E-15]
58 | 0.0142 µM | CCSc1ccc(-c2ccc(S(=O)(=O)NC(Cc3ccccc3)C(=O)O)cc2)cc1 (stereo not drawn) [Compound E-16]
59 | 0.0067 µM | CCSc1ccc(-c2ccc(S(=O)(=O)NC(C(=O)O)C(C)CC)cc2)cc1 (stereo not drawn) [Compound E-17]
60 | 0.0204 µM | CCc1ccc(-c2ccc(S(=O)(=O)NC(C(=O)O)C(C)C)cc2)cc1 (stereo not drawn) [Compound E-18]
61 | 0.0122 µM | CCOc1ccc(-c2ccc(S(=O)(=O)NC(C(=O)O)C(C)C)cc2)cc1 (stereo not drawn) [Compound E-19]
62 | 0.0141 µM | CC(C)C(NS(=O)(=O)c1ccc(-c2ccc(OC(F)(F)F)cc2)cc1)C(=O)O (stereo not drawn) [Compound E-20]
63 | 0.002 µM | CSc1ccc(-c2ccc(-c3ccc(S(=O)(=O)N[C@@H](C(=O)O)C(C)C)cc3)cc2)cc1 [Compound E-21]
64 | 0.0139 µM | CC(C)[C@@H](NS(=O)(=O)c1ccc(-c2ccc(-c3ccc4ccccc4c3)cc2)cc1)C(=O)O [Compound E-22]
65 | 1.06 µM | O=C(O)[C@@H](Cc1ccc(-c2ccccc2)cc1)NS(=O)(=O)c1ccc(-c2ccccc2)cc1 [Compound E-23]
66 | 0.024 µM | CC(C)[C@@H](NS(=O)(=O)c1ccc(-c2ccc(-c3ccccc3)cc2)cc1)C(=O)O [Compound E-24]
67 | 0.39 µM | CC(C)(C)c1ccc(-c2ccc(S(=O)(=O)NC(Cc3ccccc3)C(=O)O)cc2)cc1 (stereo not drawn) [Compound E-25]
68 | 0.21 µM | O=C(O)C(Cc1ccccc1)NS(=O)(=O)c1ccc(-c2ccc(F)cc2)cc1 (stereo not drawn) [Compound E-26]

Row | Compound | IC50
69 | C[C@@H](NS(=O)(=O)c1ccc(-c2ncc(-c3ccc4ccccc4c3)s2)cc1)C(=O)O [Compound A-12] | 0.012 µM
